Assay results: EP0671410A1, “Antiviral compounds” (priority 1989, dated 1991)

How the values were obtained:
[1] = tested on: Influenza A and B strains; assay: microbe, parasite or virus in culture; type: cell-based; conditions: in Gallus gallus, read-out: Anti-influenza Activity CE cells IC50,µM
[2] = tested on: Influenza A and B strains; design: species or system Mice; conditions: in vivo
[3] = tested on: Respiratory Syncytial Virus (RSV); assay: microbe, parasite or virus in culture; type: cell-based; conditions: human respiratory syncytial virus, BSC-1; BS-C-1 cells (African Green Monkey kidney cells); plaque/foci reduction; read-out: Anti-respiratory syncytial virus BS-C-1 cells IC₅₀

Compound: Nc1nc(N)c2ncn([C@@H]3O[C@H](CO)[C@@H](O)[C@H]3F)c2n1 [Example 6, 2,6-Diamino-9-(2-deoxy-2-fluoro-β-D-ribofuranosyl)-9H-purine]
- IC50 [1]: 0.6 µM
- Anti-influenza Activity Mouse log10 reduction in virus titre. (Average of 5 Mice) [2]: +(2.1) log10

Compound: Nc1nc2c(ncn2[C@@H]2O[C@H](CO)[C@@H](O)[C@H]2F)c(=O)[nH]1 [Example 7, 9-(2-Deoxy-2-fluoro-β-D-ribofuranosyl)guanine]
- IC50 [1]: 0.8 to 2 µM
- IC50 [3]: 26.2 µM
- Anti-influenza Activity Mouse log10 reduction in virus titre. (Average of 5 Mice) [2]: +(2.4) log10

Compound: Nc1ncnc2c1ncn2[C@@H]1O[C@H](CO)[C@@H](O)[C@H]1F [Example 8, 9-(2-Deoxy-2-fluoro-β-D-ribofuranosyl)adenine]
- IC50 [1]: 4 µM
- Anti-influenza Activity Mouse log10 reduction in virus titre. (Average of 5 Mice) [2]: +(2.3) log10

Compound: Nc1ncc2ncn([C@@H]3O[C@H](CO)[C@@H](O)[C@H]3F)c2n1 [Example 9, 2-Amino-9-(2-deoxy-2-fluoro-β-D-ribofuranosyl)-9H-purine]
- Anti-influenza Activity Mouse log10 reduction in virus titre. (Average of 5 Mice) [2]: +(1.6) log10

Compound: COc1nc(N)nc2c1ncn2[C@@H]1O[C@H](CO)[C@@H](O)[C@H]1F [Example 12, 2-Amino-9-(2-deoxy-2-fluoro-β-D-ribofuranosyl)-6-methoxy-9H-purine]
- IC50 [1]: 0.4 µM
- IC50 [3]: 6.3 µM
- Anti-influenza Activity Mouse log10 reduction in virus titre. (Average of 5 Mice) [2]: +(1.9) log10
